Test results taken from ChEMBL document CHEMBL6109139, “Rational Design of the First Dual Agonist at Trace Amine-Associated Receptor 1 and 5-HT2C Receptors Based on Binding Pocket Similarity for the Treatment of Schizophrenia and Alzheimer's Disease-Related Psychosis” (J Med Chem, 2025).
Calls of active or inactive are those of the source. No cut-off for these calls is given here.

How the values were obtained:
MAO-A = MAO-A (Homo sapiens, UniProt P21397); experiment: Binding affinity to MAO-A (unknown origin) at 10 uM by radioligand binding assay relative to control; details: read-out: Activity
Sequence of MAO-A (P21397 whole entry): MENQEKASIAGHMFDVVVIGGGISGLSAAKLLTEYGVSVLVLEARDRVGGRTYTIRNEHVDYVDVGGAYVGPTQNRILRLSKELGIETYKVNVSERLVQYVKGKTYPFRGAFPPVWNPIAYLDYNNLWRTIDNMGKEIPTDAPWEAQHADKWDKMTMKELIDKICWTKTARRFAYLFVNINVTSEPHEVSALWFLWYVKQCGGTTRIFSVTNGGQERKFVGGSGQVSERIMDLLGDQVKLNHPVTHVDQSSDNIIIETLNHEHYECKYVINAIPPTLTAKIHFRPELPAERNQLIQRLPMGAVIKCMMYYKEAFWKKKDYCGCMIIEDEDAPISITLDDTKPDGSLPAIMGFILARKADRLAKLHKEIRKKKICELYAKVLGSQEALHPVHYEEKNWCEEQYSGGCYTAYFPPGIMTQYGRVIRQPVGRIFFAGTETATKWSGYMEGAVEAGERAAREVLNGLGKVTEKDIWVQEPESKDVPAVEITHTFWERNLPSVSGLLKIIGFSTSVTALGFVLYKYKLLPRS

Mus musculus [1] = experiment: Antipsychotic activity in amyloid beta (1 to 42) induced hyperlocomotion in mouse model assessed as decrease in total distance traveled at 10 mg/kg by open field test; type: functional, organism-based
[2] = biological target: Cannabinoid receptor 2 (Homo sapiens) (UniProt P34972); experiment: Binding affinity to CB2 (unknown origin) at 10 uM by radioligand binding assay relative to control
Sequence of Cannabinoid receptor 2 (Homo sapiens) (P34972 whole entry): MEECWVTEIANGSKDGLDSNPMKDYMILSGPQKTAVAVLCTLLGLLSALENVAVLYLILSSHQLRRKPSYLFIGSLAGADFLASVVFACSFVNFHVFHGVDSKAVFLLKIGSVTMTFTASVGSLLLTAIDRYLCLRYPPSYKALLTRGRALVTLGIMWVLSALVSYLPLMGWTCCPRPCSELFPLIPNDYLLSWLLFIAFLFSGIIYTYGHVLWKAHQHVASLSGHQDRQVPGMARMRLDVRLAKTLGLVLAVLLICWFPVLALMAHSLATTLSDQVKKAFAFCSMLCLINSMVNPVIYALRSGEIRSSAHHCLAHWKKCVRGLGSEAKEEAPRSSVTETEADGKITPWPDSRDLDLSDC

[3] = Toxicity in male Sprague-Dawley rat assessed as suppression of food consumption at 7.5 mg/kg, po administered once daily for 4 weeks and measured after 4 weeks; type: organism-based; details: in vivo, 1344 h, time 8 weeks
[4] = Metabolic stability in human liver microsomes assessed as intrinsic clearance at 1 uM incubated for 60 mins by LC-MS/MS analysis; type: ADME, Microsome; details: read-out: CLH
[5] = Plasma protein binding in human assessed as unbound fraction by LC-MS/MS analysis; type: ADME, cell-free
[6] = Mutagenicity in Salmonella typhimurium TA100 by Ames test; type: toxicity; details: salmonella enterica subsp. enterica serovar typhimurium
[7] = Toxicity in female Beagle dog assessed as change in organ ratios at 0.75 to 2.5 mg/kg, IG administered once daily for 4 weeks and measured after 4 weeks; type: organism-based, Canis lupus familiaris; details: in vivo, po, 1344 h, dose 0.75-2.5 mg/kg, time 8 weeks
[8] = biological target: Beta-1 adrenergic receptor (Homo sapiens) (UniProt P08588); experiment: Binding affinity to beta 1 receptor (unknown origin) at 10 uM by radioligand binding assay relative to control
Sequence of Beta-1 adrenergic receptor (Homo sapiens) (P08588 whole entry, looked up): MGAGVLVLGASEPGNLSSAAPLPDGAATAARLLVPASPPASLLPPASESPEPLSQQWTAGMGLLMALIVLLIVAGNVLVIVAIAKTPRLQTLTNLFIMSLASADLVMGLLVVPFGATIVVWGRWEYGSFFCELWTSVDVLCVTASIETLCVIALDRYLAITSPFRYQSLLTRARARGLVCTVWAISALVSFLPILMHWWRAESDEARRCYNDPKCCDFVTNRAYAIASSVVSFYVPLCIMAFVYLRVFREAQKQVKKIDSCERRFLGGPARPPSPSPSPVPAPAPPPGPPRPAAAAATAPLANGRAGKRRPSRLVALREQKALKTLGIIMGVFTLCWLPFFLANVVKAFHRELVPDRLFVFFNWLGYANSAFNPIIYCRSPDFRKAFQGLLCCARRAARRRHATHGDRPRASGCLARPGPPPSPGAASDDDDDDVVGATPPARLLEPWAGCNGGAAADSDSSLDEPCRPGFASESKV

[9] = Toxicity in Sprague-Dawley rat assessed as good general health at 2.5 to 7.5 mg/kg, po administered once daily for 4 weeks; type: organism-based; details: in vivo, 672 h, dose 2.5-7.5 mg/kg
[10] = Toxicity in male Sprague-Dawley rat assessed as irritability at 7.5 mg/kg, po administered once daily for 4 weeks; type: organism-based; details: in vivo, 672 h
[11] = Toxicity in male Beagle dog assessed as change in urinalysis at 0.75 to 2.5 mg/kg, IG administered once daily for 4 weeks and measured after 4 weeks; type: organism-based, Canis lupus familiaris; details: in vivo, po, 1344 h, dose 0.75-2.5 mg/kg, time 8 weeks
[12] = Cardiotoxicity in conscious cynomolgus monkey assessed as change in diastolic pressure at 3.125 to 12.5 mg/kg, IG measured within 25 hrs; type: toxicity, organism-based, Macaca fascicularis; details: in vivo, po, dose 3.125-12.5 mg/kg
[13] = Toxicity in male Sprague-Dawley rat assessed as irritability at 7.5 mg/kg, po administered once daily for 4 weeks and measured after 4 weeks; type: organism-based; details: in vivo, 1344 h, time 8 weeks
Mus musculus [14] = species: Mus musculus; experiment: Antipsychotic activity against MK-801 induced hyperlocomotion in male C57BL/6J mouse model assessed as effective dose; type: functional
[15] = Toxicity in female Sprague-Dawley rat assessed as irritability at 7.5 mg/kg, po administered once daily for 4 weeks and measured after 4 weeks; type: organism-based; details: in vivo, 1344 h, time 8 weeks
[16] = biological target: Voltage-gated inwardly rectifying potassium channel KCNH2 (Homo sapiens, UniProt Q12809); experiment: Inhibition of human ERG expressed in CHO cells by whole cell patch clamp technique; type: toxicity, cell-based
Sequence of Voltage-gated inwardly rectifying potassium channel KCNH2 (Q12809 whole entry): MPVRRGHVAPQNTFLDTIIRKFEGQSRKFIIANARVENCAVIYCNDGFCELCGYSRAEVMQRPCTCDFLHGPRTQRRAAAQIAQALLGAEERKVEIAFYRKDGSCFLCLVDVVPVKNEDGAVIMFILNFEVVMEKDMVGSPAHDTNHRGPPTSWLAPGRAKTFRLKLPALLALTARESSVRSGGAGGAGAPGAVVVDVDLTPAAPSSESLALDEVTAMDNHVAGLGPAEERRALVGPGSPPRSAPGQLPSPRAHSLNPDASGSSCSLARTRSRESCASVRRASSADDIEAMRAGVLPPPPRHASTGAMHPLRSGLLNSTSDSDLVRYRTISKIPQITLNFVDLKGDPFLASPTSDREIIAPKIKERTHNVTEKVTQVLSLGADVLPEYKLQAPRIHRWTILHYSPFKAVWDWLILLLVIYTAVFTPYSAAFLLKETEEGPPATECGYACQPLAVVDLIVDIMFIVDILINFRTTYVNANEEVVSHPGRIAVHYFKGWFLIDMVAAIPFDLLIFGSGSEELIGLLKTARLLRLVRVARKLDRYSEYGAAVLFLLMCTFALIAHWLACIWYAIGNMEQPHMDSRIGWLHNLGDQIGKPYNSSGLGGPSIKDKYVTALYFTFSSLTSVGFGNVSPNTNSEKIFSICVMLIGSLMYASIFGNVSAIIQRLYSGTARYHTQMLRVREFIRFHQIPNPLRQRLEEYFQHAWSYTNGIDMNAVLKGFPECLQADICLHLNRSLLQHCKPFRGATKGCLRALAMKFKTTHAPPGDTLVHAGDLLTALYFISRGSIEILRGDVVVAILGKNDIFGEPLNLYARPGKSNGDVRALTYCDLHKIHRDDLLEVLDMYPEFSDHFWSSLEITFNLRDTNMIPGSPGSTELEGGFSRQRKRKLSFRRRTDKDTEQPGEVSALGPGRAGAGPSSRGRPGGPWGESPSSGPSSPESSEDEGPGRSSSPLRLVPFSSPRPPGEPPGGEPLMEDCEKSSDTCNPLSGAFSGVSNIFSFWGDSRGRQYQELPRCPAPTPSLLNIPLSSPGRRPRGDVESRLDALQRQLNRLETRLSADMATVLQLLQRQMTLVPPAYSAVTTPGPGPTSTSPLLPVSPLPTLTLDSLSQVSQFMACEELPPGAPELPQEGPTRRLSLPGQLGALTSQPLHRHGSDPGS

[17] = Toxicity in male Sprague-Dawley rat assessed as change in clinical chemistry at 2.5 to 7.5 mg/kg, po administered once daily for 4 weeks and measured after 4 weeks; type: organism-based; details: in vivo, 1344 h, dose 2.5-7.5 mg/kg, time 8 weeks
[18] = biological target: Acetylcholinesterase (Homo sapiens) (UniProt P22303); experiment: Binding affinity to ACHE (unknown origin) at 10 uM by radioligand binding assay relative to control
Sequence of Acetylcholinesterase (Homo sapiens) (P22303 whole entry): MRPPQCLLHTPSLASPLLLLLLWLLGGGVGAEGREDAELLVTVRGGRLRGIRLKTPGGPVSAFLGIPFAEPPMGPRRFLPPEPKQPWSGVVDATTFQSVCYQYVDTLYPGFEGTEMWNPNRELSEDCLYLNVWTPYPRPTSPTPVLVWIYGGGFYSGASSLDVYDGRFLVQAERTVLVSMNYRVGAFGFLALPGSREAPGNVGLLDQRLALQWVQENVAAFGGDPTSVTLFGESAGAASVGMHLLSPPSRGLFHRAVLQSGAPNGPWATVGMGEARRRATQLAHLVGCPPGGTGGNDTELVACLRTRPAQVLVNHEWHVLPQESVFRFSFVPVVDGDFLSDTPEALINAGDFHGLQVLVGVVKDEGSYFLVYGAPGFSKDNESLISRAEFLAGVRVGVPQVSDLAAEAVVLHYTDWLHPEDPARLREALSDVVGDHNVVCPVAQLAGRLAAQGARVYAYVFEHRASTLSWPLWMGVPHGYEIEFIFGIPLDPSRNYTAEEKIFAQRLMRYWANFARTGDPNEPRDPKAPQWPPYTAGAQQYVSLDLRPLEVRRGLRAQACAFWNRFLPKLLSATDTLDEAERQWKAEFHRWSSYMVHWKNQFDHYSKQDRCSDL

[19] = Mutagenicity in Salmonella typhimurium TA98 by Ames test; type: toxicity; details: salmonella enterica subsp. enterica serovar typhimurium
[20] = Toxicity in male Sprague-Dawley rat assessed as corneal epithelial degeneration at 2.5 to 7.5 mg/kg, po administered once daily for 4 weeks and measured after 4 weeks; type: organism-based; details: in vivo, 1344 h, dose 2.5-7.5 mg/kg, time 8 weeks
[21] = Toxicity in female Sprague-Dawley rat assessed as change in organ weight at 2.5 to 7.5 mg/kg, po administered once daily for 4 weeks and measured after 4 weeks; type: organism-based; details: in vivo, 1344 h, dose 2.5-7.5 mg/kg, time 8 weeks
[22] = Toxicity in female Sprague-Dawley rat assessed as minimal corneal neovascularization at 2.5 to 7.5 mg/kg, po administered once daily for 4 weeks and measured after 4 weeks; type: organism-based; details: in vivo, 1344 h, dose 2.5-7.5 mg/kg, time 8 weeks
[23] = Mutagenicity in Salmonella typhimurium TA102 by Ames test; type: toxicity; details: salmonella enterica subsp. enterica serovar typhimurium
[24] = Toxicity in Sprague-Dawley rat assessed as dyskinesia 2.5 to 7.5 mg/kg, po administered once daily for 4 weeks; type: organism-based; details: in vivo, 672 h, dose 2.5-7.5 mg/kg
[25] = biological target: Tyrosine-protein kinase Lck (Homo sapiens) (UniProt P06239); experiment: Binding affinity to LCK receptor (unknown origin) at 10 uM by radioligand binding assay relative to control
[26] = Toxicity in female Sprague-Dawley rat assessed as suppression of body weight gain at 7.5 mg/kg, po administered once daily for 4 weeks and measured after 4 weeks; type: organism-based; details: in vivo, 1344 h, time 8 weeks
[27] = Toxicity in male Sprague-Dawley rat assessed as minimal corneal neovascularization at 2.5 to 7.5 mg/kg, po administered once daily for 4 weeks and measured after 4 weeks; type: organism-based; details: in vivo, 1344 h, dose 2.5-7.5 mg/kg, time 8 weeks
[28] = Toxicity in male Sprague-Dawley rat assessed as piloerection at 7.5 mg/kg, po administered once daily for 4 weeks; type: organism-based; details: in vivo, 672 h
Cytochrome P450 2C8 = Cytochrome P450 2C8 (Homo sapiens, UniProt P10632); experiment: Inhibition of CYP2C8 in human liver microsomes in presence of NADPH by LC-MS/MS analysis; type: ADME, Microsome
Sequence of Cytochrome P450 2C8 (P10632 whole entry): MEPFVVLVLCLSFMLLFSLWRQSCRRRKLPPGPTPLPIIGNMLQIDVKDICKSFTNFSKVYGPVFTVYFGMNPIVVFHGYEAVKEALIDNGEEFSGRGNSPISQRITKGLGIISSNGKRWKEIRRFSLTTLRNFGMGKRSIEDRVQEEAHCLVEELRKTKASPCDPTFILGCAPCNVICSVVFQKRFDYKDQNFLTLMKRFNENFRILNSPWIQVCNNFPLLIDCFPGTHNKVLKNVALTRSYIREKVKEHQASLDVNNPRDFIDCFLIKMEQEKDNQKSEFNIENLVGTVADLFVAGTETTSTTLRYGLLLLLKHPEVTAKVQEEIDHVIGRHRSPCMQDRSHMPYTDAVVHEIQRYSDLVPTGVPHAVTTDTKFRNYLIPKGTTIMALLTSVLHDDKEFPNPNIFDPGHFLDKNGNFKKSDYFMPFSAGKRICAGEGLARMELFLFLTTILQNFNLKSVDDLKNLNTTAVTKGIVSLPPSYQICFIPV

[29] = biological target: 5-hydroxytryptamine receptor 1A (Homo sapiens) (UniProt P08908); experiment: Agonist activity at human 5-HT1A expressed in CHO cells coexpressing Galpha15 by measuring maximum efficacy at 2 uM by FLIPR calcium assay relative to control; type: functional, cell-based; details: filed as agonist
Sequence of 5-hydroxytryptamine receptor 1A (Homo sapiens) (P08908 whole entry): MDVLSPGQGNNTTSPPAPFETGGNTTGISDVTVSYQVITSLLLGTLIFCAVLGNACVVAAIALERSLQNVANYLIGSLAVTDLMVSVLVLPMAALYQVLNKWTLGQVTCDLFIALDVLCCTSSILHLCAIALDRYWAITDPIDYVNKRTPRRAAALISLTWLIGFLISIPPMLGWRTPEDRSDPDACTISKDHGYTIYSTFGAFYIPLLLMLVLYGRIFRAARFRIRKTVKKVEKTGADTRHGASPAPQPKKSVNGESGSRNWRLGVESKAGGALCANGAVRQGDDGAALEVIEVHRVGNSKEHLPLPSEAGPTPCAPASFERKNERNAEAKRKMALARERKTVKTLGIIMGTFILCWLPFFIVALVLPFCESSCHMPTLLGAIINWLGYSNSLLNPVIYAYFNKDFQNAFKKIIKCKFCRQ

[30] = Drug concentration in male Sprague-Dawley rat brain at 5 mg/kg, IG measured after 0.25 hrs by LC-MS/MS analysis; type: ADME, organism-based; details: in vivo, po
[31] = biological target: Alpha-2A adrenergic receptor (Homo sapiens) (UniProt P08913); experiment: Binding affinity to alpha 2A (unknown origin) at 10 uM by radioligand binding assay relative to control
[32] = Toxicity in male Sprague-Dawley rat assessed as irritability at 2.5 mg/kg, po administered once daily for 4 weeks and measured after 4 weeks; type: organism-based; details: in vivo, 1344 h, time 8 weeks
[33] = Ratio of drug concentration in male Sprague-Dawley rat brain to plasma at 5 mg/kg, IG measured after 0.25 hrs by LC-MS/MS analysis; type: ADME, organism-based; details: brain and plasma, po, read-out: BPR
[34] = Toxicity in female Beagle dog assessed as change in organ weight at 0.75 to 2.5 mg/kg, IG administered once daily for 4 weeks and measured after 4 weeks; type: organism-based, Canis lupus familiaris; details: in vivo, po, 1344 h, dose 0.75-2.5 mg/kg, time 8 weeks
[35] = biological target: Mu-type opioid receptor (Homo sapiens) (UniProt P35372); experiment: Binding affinity to op-mu receptor (unknown origin) at 10 uM by radioligand binding assay relative to control
Sequence of Mu-type opioid receptor (Homo sapiens) (P35372 whole entry): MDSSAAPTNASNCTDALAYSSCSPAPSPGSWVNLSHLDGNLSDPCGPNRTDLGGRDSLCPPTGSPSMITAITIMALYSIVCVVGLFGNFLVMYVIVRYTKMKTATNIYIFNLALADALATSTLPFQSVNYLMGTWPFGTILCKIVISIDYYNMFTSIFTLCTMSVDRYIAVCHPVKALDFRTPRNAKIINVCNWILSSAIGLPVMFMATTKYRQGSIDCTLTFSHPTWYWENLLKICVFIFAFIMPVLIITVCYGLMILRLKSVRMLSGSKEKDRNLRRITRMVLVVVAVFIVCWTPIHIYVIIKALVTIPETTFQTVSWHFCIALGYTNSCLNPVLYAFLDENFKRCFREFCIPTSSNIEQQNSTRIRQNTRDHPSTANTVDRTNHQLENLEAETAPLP

[36] = Toxicity in female Beagle dog assessed as somnolence at 2.5 mg/kg, IG administered once daily for 4 weeks; type: organism-based, Canis lupus familiaris; details: in vivo, po, 672 h
[37] = system: 5-hydroxytryptamine receptor 2C (Homo sapiens), P28335 [W324A]; experiment: Agonist activity at 5HT2CR W324A mutant (unknown origin) expressed in HEK293 cells assessed as IP1 level by HTRF IP1 competitive binding assay; type: cell-based
Sequence of 5-hydroxytryptamine receptor 2C (Homo sapiens), P28335 [W324A] (P28335 whole entry W324A): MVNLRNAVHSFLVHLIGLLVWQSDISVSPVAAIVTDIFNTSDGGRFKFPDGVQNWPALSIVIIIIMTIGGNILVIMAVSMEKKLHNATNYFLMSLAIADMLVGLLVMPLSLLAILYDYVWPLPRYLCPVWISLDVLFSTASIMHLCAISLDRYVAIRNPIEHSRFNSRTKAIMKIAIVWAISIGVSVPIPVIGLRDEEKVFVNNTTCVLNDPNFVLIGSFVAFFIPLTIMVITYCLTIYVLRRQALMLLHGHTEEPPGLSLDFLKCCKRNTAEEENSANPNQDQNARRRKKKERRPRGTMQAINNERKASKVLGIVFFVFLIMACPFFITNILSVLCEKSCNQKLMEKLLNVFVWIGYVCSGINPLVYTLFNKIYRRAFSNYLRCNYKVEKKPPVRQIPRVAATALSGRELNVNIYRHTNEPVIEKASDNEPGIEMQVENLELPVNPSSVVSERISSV

With `c1cc2c(s1)[C@@H]1CNCCN1CC2` the activity at 10 µM (MAO-A) was 5.33%, the Activity (Mus musculus [1]) was “Active” and the Activity [2] was 2.7%. The Activity [3] was “Non-toxic”, the CLint scaled at 1 µM [4] was 6.8 mL/min/kg and the fraction unbound [5] was 0.668. The Activity [6] was “Non-toxic”, the Activity [7] was “Non-toxic” and the Activity [8] was -0.11%. For the same compound, the Activity [9] was “Non-toxic”, the Activity [10] was “Toxic” and the Activity [11] was “Non-toxic”. For the same compound, the Activity [12] was “Non-toxic”, the Activity [13] was “Non-toxic” and the ED50 (Mus musculus [14]) was 2.81 mg/kg. For the same compound, the Activity [15] was “Non-toxic”, the IC50 [16] was > 30 µM and the Activity [17] was “Non-toxic”. For the same compound, the Activity [18] was -0.73%, the Activity [19] was “Non-toxic” and the Activity [20] was “Non-toxic”. The Activity [21] was “Non-toxic”, the Activity [22] was “Non-toxic” and the Activity [23] was “Non-toxic”. For the same compound, the Activity [24] was “Non-toxic”, the Activity [25] was 3.4% and the Activity [26] was “Toxic”. The Activity [27] was “Non-toxic”, the Activity [28] was “Toxic” and the IC50 (Cytochrome P450 2C8) was > 50 µM. It also gave an Emax [29] of 48.3%, a Ct [30] of 39250 nmol/kg and an Activity [31] of 72.7%. The Activity [32] was “Non-toxic”, the Kp at 0.25 h [33] was 8.45 and the Activity [34] was “Non-toxic”. The Activity [35] was 18.2%, the Activity [36] was “Toxic” and the Activity [37] was “inactive”.
